# Patent US20160052926A1, “NOVEL PYRIMIDINE AND PYRIDINE COMPOUNDS AND USAGE THEREOF” (HUTCHISON MEDIPHARMA LIMITED, priority 2013, published 2016)
# pIC50: −log10 of the molar value.
# Key:
# Recombinant human FGFR2 = Recombinant human FGFR2 (Homo sapiens, UniProt P21802); assay: Transcreener Kinase Assay of FGFR2; type: biochemical; conditions: read-out: FGFR2 (FP) IC50
# Recombinant human FGFR1 = Recombinant human FGFR1 (Homo sapiens, UniProt P11362); assay: Transcreener Kinase Assay of FGFR1; type: biochemical; conditions: read-out: FGFR1 (FP) IC50
# RT-112 = assay: Cellular Proliferation Assay (Cell Counting Kit-8), RT-112; type: cell-based; conditions: Homo sapiens, RT-112 cells, 72 hours
# Procedure: Cellular Proliferation Assay
# • KG-1 (ATCC Accession No. CCL-246), • SNU-16 (ATCC Accession No. CRL-5974), • RT-112 (ECACC Accession No. 85061106)
# • FGFR related cancer cell proliferation is measured in 96-well plates using Cell Counting Kit-8 (Dojindo CK04-13). • Seed 30000 cells/well of KG1, 5000 cells/well of SNU16, and 1000 cells/well of RT112 in a volume of 100 μL/well in growth media. • After 24 hours, dilute the compound to 10, 3.3, 1.1, 0.37, 0.12, 0.04, 0.013, 0.004 μM, keeping the DMSO concentration at 5%. • Add 10 μL of 8-point compound series to the wells of culturing cells. • Incubate at 37° C. and 5% CO2 for 72 hours • Add 10 μL/well of CCkit8 and incubate at 37° C. and 5% CO2 for an hour • Detect the optical density of each well at 450 nm on Labsystems Multiskan K3.
# • ODcompound well represents the optical density of cells treated with compound. • ODcell well represents the optical density of cells without compounds treatment. (only 0.5% DMSO) • ODcontrol well represents the optical density of culture media background
# The concentration of compound providing 50% of proliferation inhibition was calculated using Excel Fit.
# FGFR3 kinase = FGFR3 kinase (Homo sapiens, UniProt P22607); assay: Z-Lyte Kinase Assay of FGFR3; type: biochemical
# Summary of the method: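 Kinase at 0.7 μg/ml with 4 μM Z-LYTE Tyr 4 peptide and ATP diluted to 300 uM (working solution, 1.33× buffer); compounds 1–0.00046 μM, 2% DMSO final. Kinase reaction and development each 1 h at RT (25-30[…]); coumarin (445 nm) and fluorescein (520 nm) emission read, inhibition from % phosphorylation.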
# SNU-16 = assay: Cellular Proliferation Assay (Cell Counting Kit-8), SNU-16; type: cell-based; conditions: Homo sapiens, SNU-16 cells, 72 hours
# Summary of the method: (§1)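 Seeding was 30,000 (KG-1), 5,000 (SNU-16) or 1,000 (RT-112) cells per well, with compound added 24 h later. Dilutions were prepared as an 8-point series of 10 to 0.004 μM in 5% DMSO, before addition to wells.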
# KG-1 = assay: Cellular Proliferation Assay (Cell Counting Kit-8), KG-1; type: cell-based; conditions: Homo sapiens, KG1 cells, 72 hours
# Summary of the method: as §1
# Recombinant human FGFR1, sequence (P11362 22-822): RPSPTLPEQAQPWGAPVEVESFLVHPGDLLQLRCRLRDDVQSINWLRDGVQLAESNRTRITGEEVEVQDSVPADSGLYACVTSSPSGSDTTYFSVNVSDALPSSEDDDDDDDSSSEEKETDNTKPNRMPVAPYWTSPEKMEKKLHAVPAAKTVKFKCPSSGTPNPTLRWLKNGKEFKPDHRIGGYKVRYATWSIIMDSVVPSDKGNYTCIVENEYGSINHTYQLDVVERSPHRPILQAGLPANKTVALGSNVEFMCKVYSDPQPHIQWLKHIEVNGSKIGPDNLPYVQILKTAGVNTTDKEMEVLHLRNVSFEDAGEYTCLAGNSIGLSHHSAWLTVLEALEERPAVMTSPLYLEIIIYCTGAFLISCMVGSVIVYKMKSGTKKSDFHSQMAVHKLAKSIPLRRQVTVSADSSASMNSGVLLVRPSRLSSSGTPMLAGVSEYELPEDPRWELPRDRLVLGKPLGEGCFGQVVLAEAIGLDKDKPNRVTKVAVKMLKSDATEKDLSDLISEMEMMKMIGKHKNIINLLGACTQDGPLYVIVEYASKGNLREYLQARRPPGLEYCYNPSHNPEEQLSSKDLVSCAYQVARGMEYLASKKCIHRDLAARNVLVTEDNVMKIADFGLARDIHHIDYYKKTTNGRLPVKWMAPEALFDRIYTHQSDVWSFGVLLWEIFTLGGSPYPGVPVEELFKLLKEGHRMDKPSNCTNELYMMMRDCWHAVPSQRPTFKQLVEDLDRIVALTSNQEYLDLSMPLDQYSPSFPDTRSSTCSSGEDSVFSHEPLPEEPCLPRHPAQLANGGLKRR
# FGFR3 kinase, sequence (P22607 23-806): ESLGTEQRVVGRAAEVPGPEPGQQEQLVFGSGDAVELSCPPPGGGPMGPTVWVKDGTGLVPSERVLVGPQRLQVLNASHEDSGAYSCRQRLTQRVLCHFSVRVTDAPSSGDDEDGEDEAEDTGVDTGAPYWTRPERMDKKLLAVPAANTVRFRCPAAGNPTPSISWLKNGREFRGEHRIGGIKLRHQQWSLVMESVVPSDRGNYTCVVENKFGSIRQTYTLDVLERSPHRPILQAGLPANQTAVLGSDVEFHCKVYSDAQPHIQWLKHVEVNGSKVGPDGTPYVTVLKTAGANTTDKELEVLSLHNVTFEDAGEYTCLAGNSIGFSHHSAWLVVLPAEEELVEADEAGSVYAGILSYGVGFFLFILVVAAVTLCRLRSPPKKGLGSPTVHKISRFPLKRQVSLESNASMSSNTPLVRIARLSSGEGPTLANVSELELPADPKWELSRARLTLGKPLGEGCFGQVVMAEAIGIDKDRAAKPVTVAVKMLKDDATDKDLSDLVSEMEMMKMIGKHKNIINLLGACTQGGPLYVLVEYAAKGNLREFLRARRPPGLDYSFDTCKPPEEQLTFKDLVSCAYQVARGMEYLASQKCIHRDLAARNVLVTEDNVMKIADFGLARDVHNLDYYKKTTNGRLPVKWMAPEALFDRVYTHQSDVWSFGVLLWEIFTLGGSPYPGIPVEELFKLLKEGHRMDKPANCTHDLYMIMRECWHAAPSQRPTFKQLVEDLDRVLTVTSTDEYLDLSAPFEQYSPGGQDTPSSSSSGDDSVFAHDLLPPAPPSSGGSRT
# Recombinant human FGFR2, sequence (P21802 22-821): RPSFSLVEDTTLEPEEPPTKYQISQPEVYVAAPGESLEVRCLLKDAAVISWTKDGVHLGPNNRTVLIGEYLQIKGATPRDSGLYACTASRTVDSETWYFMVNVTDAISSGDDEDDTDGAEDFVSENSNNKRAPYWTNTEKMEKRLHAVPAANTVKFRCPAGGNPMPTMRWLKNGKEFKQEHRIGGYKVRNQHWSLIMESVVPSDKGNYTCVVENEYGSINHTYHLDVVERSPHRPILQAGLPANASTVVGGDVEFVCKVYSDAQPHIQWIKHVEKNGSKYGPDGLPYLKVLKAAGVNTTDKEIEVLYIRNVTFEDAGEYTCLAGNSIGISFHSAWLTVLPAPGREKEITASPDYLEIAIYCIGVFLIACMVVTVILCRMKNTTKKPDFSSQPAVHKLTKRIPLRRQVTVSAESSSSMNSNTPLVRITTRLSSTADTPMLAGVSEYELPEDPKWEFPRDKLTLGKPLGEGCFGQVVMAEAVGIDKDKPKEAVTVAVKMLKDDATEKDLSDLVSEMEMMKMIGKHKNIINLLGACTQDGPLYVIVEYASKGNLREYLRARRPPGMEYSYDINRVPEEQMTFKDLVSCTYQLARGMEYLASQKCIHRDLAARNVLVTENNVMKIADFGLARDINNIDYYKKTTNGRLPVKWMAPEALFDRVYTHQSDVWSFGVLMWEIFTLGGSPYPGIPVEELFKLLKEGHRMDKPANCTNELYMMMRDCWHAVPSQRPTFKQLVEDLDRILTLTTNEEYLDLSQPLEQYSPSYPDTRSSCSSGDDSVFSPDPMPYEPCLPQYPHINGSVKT
SMILES,pIC50 (Recombinant human FGFR2),pIC50 (Recombinant human FGFR1),pIC50 (RT-112),pIC50 (FGFR3 kinase),pIC50 (SNU-16),pIC50 (KG-1)
CNC(=O)c1cc(CCc2cnc(Nc3cnn(CCS(C)(=O)=O)c3)nc2)c(Cl)c(OC)c1 [Compound 153],8.15,7.82,6.62,7.80,7.23,6.75
CCn1cc(Nc2ncc(CCc3cc(C(=O)NC)cc(OC)c3Cl)cn2)cn1 [Compound 115],8.22,7.85,7.28,7.96,7.72,7.92
CNC(=O)c1cc(CCc2cnc(Nc3ccc(-n4cccn4)cc3)nc2)c(F)c(OC)c1 [Compound 35],8.05,7.52,6.34,7.08,6.80,6.72
CNC(=O)c1cc(CCc2cnc(Nc3ccc4c(C)n(C)nc4c3)nc2)c(Cl)c(OC)c1 [Compound 84],8.15,7.72,6.91,7.80,6.62,6.61
CNC(=O)c1cc(CCc2cnc(Nc3cnn(C4CC4)c3)nc2)c(F)c(OC)c1 [Compound 107],8.15,8.00,7.05,7.85,7.59,7.55
CNC(=O)c1cc(CCc2cnc(Nc3cnn(C)c3)nc2)c(Cl)c(OC)c1 [Compound 146],8.00,7.92,6.85,7.85,7.72,8.05
"CCN1CCN(c2ccc(Nc3ncc(CCc4cc(OC)cc(C(=O)NC)c4)cn3)cc2)CC1 [Compound 1, 3-(2-(2-((4-(4-ethylpiperazin-1-yl)phenyl)amino)pyrimidin-5-yl)ethyl)-5-methoxy-N-methylbenzamide]",7.72,7.62,6.21,7.55,7.02,7.31
CNC(=O)c1cc(CCc2cnc(Nc3cnn(C(C)C)c3)nc2)c(F)c(OC)c1 [Compound 112],8.15,8.05,7.44,8.10,7.77,7.74
CCNC(=O)c1cc(CCc2cnc(Nc3cnn(C)c3)nc2)c(Cl)c(OC)c1 [Compound 147],8.00,7.72,6.48,7.66,7.34,7.32
CCONC(=O)c1cc(CCc2cnc(Nc3ccc(N4CCN(CC)CC4)cc3)nc2)cc(OC)c1 [Compound 50],7.82,7.85,6.45,7.54,6.88,7.35
CCN(CC)CCn1cc(Nc2ncc(CCc3cc(C(=O)NC)cc(OC)c3Cl)cn2)cn1 [Compound 86],8.00,7.77,7.92,8.00,7.80,7.38
CNC(=O)c1cc(CCc2cnc(Nc3cnn([C@@H]4CCN(C)C4)c3)nc2)c(F)c(OC)c1 [Compound 169],7.85,7.82,6.27,7.82,7.74,7.77
CNC(=O)c1cc(COc2cnc(Nc3ccc(N4C[C@@H](C)N[C@@H](C)C4)nc3)nc2)c(F)c(OC)c1 [Compound 201],7.92,7.54,7.18,7.72,7.72,5.96
CNC(=O)c1cc(CCc2cnc(Nc3cnn(CCCN4CCCC4)c3)nc2)c(F)c(OC)c1 [Compound 138],8.15,8.05,6.69,8.10,7.49,6.21
CNC(=O)c1cc(CCc2cnc(Nc3ccc(C(=O)N4CCN(C)CC4)cc3)nc2)c(Cl)c(OC)c1 [Compound 90],8.30,7.96,7.59,8.15,8.05,7.51
CNC(=O)c1cc(COc2cnc(Nc3ccc(O)cc3)nc2)c(F)c(OC)c1 [Compound 211],8.05,7.74,6.79,7.68,7.28,7.08
"CNC(=O)c1cc(COc2cnc(Nc3ccc(N4C[C@@H](C)N[C@@H](C)C4)cc3)nc2)c(Cl)c(OC)c1 [Compound 186, 4-chloro-3-(((2-((4-((3S,5R)-3,5-dimethylpiperazin-1-yl)phenyl)amino)pyrimidin-5-yl)oxy)methyl)-5-methoxy-N-methylbenzamide]",8.40,8.30,8.15,8.30,8.15,8.00
CCN1CCN(c2ccc(Nc3ncc(/C=C/c4cc(C(=O)NC)cc(OC)c4F)cn3)cc2)CC1 [Compound 87],8.00,8.00,7.08,7.44,7.30,7.60
CNC(=O)c1cc(CCc2cnc(Nc3cnn(C4CCOCC4)c3)nc2)c(F)c(OC)c1 [Compound 132],8.22,7.92,7.23,8.22,8.00,7.70
CNC(=O)c1cc(CCc2cnc(Nc3cnn(CCN4CCCC4)c3)nc2)c(F)c(OC)c1 [Compound 135],7.72,7.66,6.64,7.66,7.34,6.43
"CNC(=O)c1cc(CCc2cnc(Nc3cnn([C@@H]4CCCN(C)C4)c3)nc2)c(F)c(OC)c1 [Compound 165, (R)-4-fluoro-3-methoxy-N-methyl-5-(2-(2-(1-(1-methylpiperidin-3-yl)-1H-pyrazol-4-ylamino)pyrimidin-5-yl)ethyl)benzamide]",8.15,7.96,6.97,8.15,7.64,7.25
CNC(=O)c1cc(CCc2cnc(Nc3ccn4ccnc4c3)nc2)c(F)c(OC)c1 [Compound 66],8.15,7.74,6.70,7.60,7.26,6.71
CONC(=O)c1cc(CCc2cnc(Nc3ccc(F)cc3)nc2)cc(OC)c1 [Compound 104],8.05,7.82,6.85,7.36,7.42,7.28
CONC(=O)c1cc(CCc2cnc(Nc3cnn(CCO)c3)nc2)cc(OC)c1 [Compound 108],8.52,8.30,6.25,8.00,6.95,6.96
CNC(=O)c1cc(CCc2cnc(Nc3ccc(OC)nc3)nc2)c(F)c(OC)c1 [Compound 30],8.00,7.54,6.62,7.40,7.17,7.26
CCN1CC[C@@H](n2cc(Nc3ncc(CCc4cc(C(=O)NC)cc(OC)c4F)cn3)cn2)C1 [Compound 171],7.39,7.37,6.18,7.30,7.32,6.89
"CNC(=O)c1cc(CCc2cnc(Nc3ccc(N4CCCCC4=O)cc3)nc2)c(F)c(OC)c1 [Compound 145, 4-fluoro-3-methoxy-N-methyl-5-(2-(2-(4-(2-oxopiperidin-1-yl)phenylamino)pyrimidin-5-yl)ethyl)benzamide]",7.89,7.43,6.59,7.49,7.28,6.81
CCN(CC)CCn1cc(Nc2ncc(CCc3cc(C(=O)NC)cc(OC)c3F)cn2)cn1 [Compound 136],7.96,7.64,7.43,7.74,7.60,7.04
CCN1CCN(c2ccc(Nc3ncc(CCc4cc(C(=O)NC)cc(OC)c4F)cn3)cc2)CC1 [Compound 44],8.40,8.30,7.29,8.05,7.82,8.05
